Data published in patent publication US20230271956A1, “AMIDE DERIVATIVES” (Merck Patent GmbH, priority 2020, published 2023).

What was measured:
ACSS2 = molecular target: T1, ACSS2 (Homo sapiens, UniProt Q9NR19); assay: Cellular assay of 14C acetate incorporation into histones (IC50 ACSS2 cellular histone); type: cell-based; settings: HCT-15 cells
T1 construct: endogenous fatty acid synthesis activity in the human HCT-15 cancer cell line; endogenous in cells; host or cells: HCT-15
In short: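 Human HCT-15 cells preincubated 1 h with compound (0.25% DMSO final), then pulsed 3 h with 14C-acetate. Histones were acid-extracted (0.2 M HCl, overnight, 4° C) after Triton lysis in sodium-butyrate buffer; incorporated 14C counted by liquid scintillation (CPM) to give IC50.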

CHO-K1 cells = assay: Micronucleus assay (MNT) in vitro; type: cell-based; design: key: A: negative, putative negative (micronuclei detected beyond threshold of 60% cyctotoxicity); B: positive; settings: 24 hrs treatment, 0.2 µM to 100 µM
Method: The in vitro MNT assay is performed in CHO-K1 cells due to their stable and welI-characterized karyotype, high sensitivity and suitability for a high content imaging approach. They have a basal spontaneous micronucleus frequency of 3-4%.
24 hrs after plating CHO-K1 cells are treated with test compounds for 24 hrs (in duplicates; fixed concentration ranges from 0.2 µM to 100 µM in 2-fold dilution steps). After a medium change cells are incubated for 24 hrs with Cytochalasin B to block cytokinesis and are then fixed and nuclei / micronuclei visualized with a DNA stain. Images are acquired with the Molecular Devices high content imagers IXU or IXM and are analyzed with the dedicated MetaXpress software micronucleus module. Criteria for scoring of micronuclei (MN) are the following: • diameter of the MN should be less than ⅓ of the main nucleus • MN should be separated from or marginally overlap with main nucleus (= no blebs) • MN should have similar staining as the main nucleus At least 1000 binucleated cells are evaluated per treatment replicate. Mitomycin C is used as reference stimulator of micronucleus formation. Cytotoxicity is evaluated in parallel and defined by comparing total nuclei count in compound-treated samples to neutral control samples treated with vehicle only (1% DMSO) (100% cytotoxicity means all cells are dead or lost).
A test compound is regarded as POSITIVE if generation of micronuclei and exhibition of less than 60% cytotoxicity at the same concentration can be observed.
Compounds are scored only in the soluble concentration range. Experimental data of the compounds shown in Table 1 in the MNT assay are shown in Table 2 below and classified in the following groups: […]

T1 sequence (Q9NR19 whole entry): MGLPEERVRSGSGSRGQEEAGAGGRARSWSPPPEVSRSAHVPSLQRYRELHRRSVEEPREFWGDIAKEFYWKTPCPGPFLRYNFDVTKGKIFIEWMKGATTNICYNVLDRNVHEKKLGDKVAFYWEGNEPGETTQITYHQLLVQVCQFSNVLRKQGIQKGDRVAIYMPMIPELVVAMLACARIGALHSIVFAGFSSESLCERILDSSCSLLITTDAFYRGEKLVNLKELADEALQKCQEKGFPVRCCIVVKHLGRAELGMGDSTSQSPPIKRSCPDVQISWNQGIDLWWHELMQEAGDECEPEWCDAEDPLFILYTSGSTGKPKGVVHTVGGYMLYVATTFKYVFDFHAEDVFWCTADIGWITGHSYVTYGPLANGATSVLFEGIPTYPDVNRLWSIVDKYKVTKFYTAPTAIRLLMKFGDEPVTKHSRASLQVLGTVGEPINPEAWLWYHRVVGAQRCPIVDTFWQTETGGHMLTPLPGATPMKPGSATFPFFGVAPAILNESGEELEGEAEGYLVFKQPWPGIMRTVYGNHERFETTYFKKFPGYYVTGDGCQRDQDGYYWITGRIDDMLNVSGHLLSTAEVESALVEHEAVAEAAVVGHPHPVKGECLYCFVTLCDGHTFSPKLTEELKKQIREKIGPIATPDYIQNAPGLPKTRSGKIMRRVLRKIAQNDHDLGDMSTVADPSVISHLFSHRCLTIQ

Structure (SMILES) | IC50 (ACSS2) | MNT (CHO-K1 cells)
CCc1c(C(O)(c2ccccc2F)c2ccccc2F)nn2cc(Cl)c(C(=O)Nc3ncn(CC)n3)cc12 [Compound 2, 2-[Bis-(2-fluoro-phenyl)-hydroxy-methyl]-6-chloro-3-ethyl-pyrazolo[1,5-a]pyridine-5-carboxylic acid (1-ethyl-1H-[1,2,4]triazol-3-yl)-amide] | 0.01 to 1 nM | A
CCn1cnc(NC(=O)c2cc3c(nc2OC)nc(C(O)(c2ccccc2F)c2ccccc2F)n3CC)n1 [Compound 102, 2-[bis(2-fluorophenyl)(hydroxy)methyl]-1-ethyl-N-(1-ethyl-1H-1,2,4-triazol-3-yl)-5-methoxy-1H-imidazo[4,5-b]pyridine-6-carboxamide] | 0.01 to 1 nM | A
CCc1c(C(O)(c2ccccc2)c2ccccc2)nn2cc(Cl)c(C(=O)Nc3ncn(CC)n3)cc12 [Compound 1, 6-Chloro-3-ethyl-2-(hydroxy-diphenylmethyl)-pyrazolo[1,5-a]pyridine-5-carboxylic acid (1-ethyl-1H-[1,2,4]triazol-3-yl)-amide] | 0.01 to 1 nM | A
CCn1cc(NC(=O)c2cc3c(nc2F)nc(C(O)(c2ccccc2F)c2ccccc2F)n3CC)cn1 [Compound 90, 2-[bis(2-fluorophenyl)(hydroxy)methyl]-1-ethyl-N-(1-ethyl-1H-pyrazol-4-yl)-5-fluoro-1H-imidazo[4,5-b]pyridine-6-carboxamide] | 1 to 10 nM | A
CCn1cc(NC(=O)c2cc3c(nc2Cl)nc(C(O)(c2ccccc2)c2ccccc2)n3CC)cn1 [Compound 98, 5-chloro-1-ethyl-N-(1-ethyl-1H-pyrazol-4-yl)-2-(hydroxydiphenylmethyl)-1H-imidazo[4,5-b]pyridine-6-carboxamide] | 1 to 10 nM | A
CCc1c(C(O)(c2ccccc2)c2ccccc2)nn2cc(Cl)c(C(=O)Nc3cnn(CC)c3)cc12 [Compound 6, 6-Chloro-3-ethyl-2-(hydroxy-diphenylmethyl)-pyrazolo[1,5-a]pyridine-5-carboxylic acid (1-ethyl-1H-pyrazol-4-yl)-amide] | 1 to 10 nM | A
CCn1cnc(NC(=O)c2cc3c(nc2OC)nc(C(O)(c2ccccc2)c2ccccc2)n3CC)n1 [Compound 103, 1-ethyl-N-(1-ethyl-1H-1,2,4-triazol-3-yl)-2-(hydroxydiphenylmethyl)-5-methoxy-1H-imidazo[4,5-b]pyridine-6-carboxamide] | 0.01 to 1 nM | A
CCn1cnc(NC(=O)c2cc3c(nc2F)nc(C(O)(c2ccccc2F)c2ccccc2F)n3CC)n1 [Compound 91, 2-[bis(2-fluorophenyl)(hydroxy)methyl]-1-ethyl-N-(1-ethyl-1H-1,2,4-triazol-3-yl)-5-fluoro-1H-imidazo[4,5-b]pyridine-6-carboxamide] | 0.01 to 1 nM | A
CCc1c(C(O)(c2ccccc2F)c2ccccc2F)nn2ccc(C(=O)Nc3ncn(CC)n3)cc12 [Compound 5, 2-[Bis-(2-fluoro-phenyl)-hydroxy-methyl]-3-ethyl-pyrazolo[1,5-a]pyridine-5-carboxylic acid (1-ethyl-1H-[1,2,4]triazol-3-yl)-amide] | 1 to 10 nM | A
CCc1c(C(O)(c2ccccc2F)c2ccccc2F)nn2cc(C)c(C(=O)Nc3ncn(CC)n3)cc12 [Compound 3, 2-[Bis-(2-fluoro-phenyl)-hydroxy-methyl]-3-ethyl-6-methyl-pyrazolo[1,5-a]pyridine-5-carboxylic acid (1-ethyl-1H-[1,2,4]triazol-3-yl)-amide] | 1 to 10 nM | A
CCc1c(C(O)(c2ccccc2F)c2ccccc2F)nc2cc(OC)c(C(=O)Nc3ncn(CC)n3)cn12 [Compound 28, 2-[Bis-(2-fluoro-phenyl)-hydroxy-methyl]-3-ethyl-7-methoxy-imidazo[1,2-a]pyridine-6-carboxylic acid (1-ethyl-1H-[1,2,4]triazol-3-yl)-amide] | 0.01 to 1 nM | A
CCc1c(C(O)(c2ccccc2F)c2ccccc2F)nc2cc(OC)c(C(=O)Nc3cnn(CC)c3)cn12 [Compound 30, 2-[Bis-(2-fluoro-phenyl)-hydroxy-methyl]-3-ethyl-7-methoxy-imidazo[1,2-a]pyridine-6-carboxylic acid (1-ethyl-1H-pyrazol-4-yl)-amide] | 1 to 10 nM | A
CCc1c(C(O)(c2ccccc2)c2ccccc2)nc2cc(OC)c(C(=O)Nc3ncn(CC)n3)cn12 [Compound 24, 3-Ethyl-2-(hydroxy-diphenyl-methyl)-7-methoxy-imidazo[1,2-a]pyridine-6-carboxylic acid (1-ethyl-1H-[1,2,4]triazol-3-yl)-amide] | 0.01 to 1 nM | A
CCc1c(C(O)(c2ccccc2)c2ccccc2)nn2ccc(C(=O)Nc3cnn(CC)c3)cc12 [Compound 10, 3-Ethyl-2-(hydroxy-diphenyl-methyl)-pyrazolo[1,5-a]pyridine-5-carboxylic acid (1-ethyl-1H-pyrazol-4-yl)-amide] | 10 to 100 nM | A
CCc1c(C(O)(c2ccccc2)c2ccccc2)nc2cc(OC)c(C(=O)Nc3cnn(CC)c3)cn12 [Compound 23, 3-Ethyl-2-(hydroxy-diphenyl-methyl)-7-methoxy-imidazo[1,2-a]pyridine-6-carboxylic acid (1-ethyl-1H-pyrazol-4-yl)-amide] | 1 to 10 nM | A
CCc1c(C(O)(c2ccccc2)c2ccccc2)nc2cc(Cl)c(C(=O)Nc3cnn(CC)c3)cn12 [Compound 19, 7-Chloro-3-ethyl-2-(hydroxy-diphenylmethyl)-imidazo[1,2-a]pyridine-6-carboxylic acid (1-ethyl-1H-pyrazol-4-yl)-amide] | 10 to 100 nM | A
CCn1cnc(NC(=O)c2cc3c(nc2F)nc(C(O)(c2ccccc2)c2ccccc2)n3CC)n1 [Compound 89, 1-ethyl-N-(1-ethyl-1H-1,2,4-triazol-3-yl)-5-fluoro-2-(hydroxydiphenylmethyl)-1H-imidazo[4,5-b]pyridine-6-carboxamide] | 1 to 10 nM | A
CCc1c(C(O)(c2ccccc2)c2ccccc2)nn2cc(OC)c(C(=O)Nc3cnn(CC)c3)cc12 [Compound 8, 3-Ethyl-2-(hydroxy-diphenyl-methyl)-6-methoxy-pyrazolo[1,5-a]pyridine-5-carboxylic acid (1-ethyl-1H-pyrazol-4-yl)-amide] | 1 to 10 nM | A
CCn1c(C(O)(c2ccccc2)c2ccccc2)nc2ccc(C(=O)NC[C@@H](C)O)cc21 [Reference Compound, 3-Ethyl-2-[hydroxy(diphenyl)methyl]-N-[(2R)-2-hydroxypropyl]benzimidazole-5-carboxamide, reference compound] | 0.01 to 1 nM | B
CCc1c(C(O)(c2ccccc2)c2ccccc2)nn2cc(OC)c(C(=O)Nc3ncn(CC)n3)cc12 [Compound 11, 3-Ethyl-2-(hydroxy-diphenyl-methyl)-6-methoxy-pyrazolo[1,5-a]pyridine-5-carboxylic acid (1-ethyl-1H-[1,2,4]triazol-3-yl)-amide] | 0.01 to 1 nM | A
CCc1c(C(O)(c2ccccc2)c2ccccc2)nc2ccc(C(=O)Nc3cnn(CC)c3)cn12 [Compound 13, 3-Ethyl-2-(hydroxy-diphenyl-methyl)-imidazo[1,2-a]pyridine-6-carboxylic acid (1-ethyl-1H-pyrazol-4-yl)-amide] | 10 to 100 nM | A
